The subject of assay [1] is HCAECs. Put plainly: CCK-8 viability of HCAECs on coated 316 L stainless steel. The assay is classed as cell-based, human. Particulars: PLGA slow-release coating, 48 h, rapamycin 50 μg/mL, activators in combination with rapamycin. The method, then: (§1) The effect of APC on a simulated stent environment of PLGA slow-release coating on a 316 L steel sheet is investigated. Slow-release coatings of a solvent control (tetrahydrofuran, THF) wrapped in poly(lactic-co-glycolic acid) (PLGA 75:25), rapamycin (50 μg/mL), APC (50 μg/mL), 40 μM of TR47, and 20 μM of Parmodulin 2, or each in combination with rapamycin (50 μg/mL) are coated on surfaces of 316 L stainless steel plates respectively.
(§2) After HCAECs are grown on the 316 L stainless steel plate for 48 h, the cell viability is tested by a CCK-8 method, the cell multiplication capacity is tested by an EdU method, and the cell migration capacity is tested by a scratch method. […] Calcein-AM staining is followed by fluorescence microscopy.
(§3) The above cells are inoculated on 316 SS, 316 L SS/Rapamycin, 316 L SS/Rapamycin/APC, 316 L SS/Rapamycin/TR47, and 316 L SS/Rapamycin/Parmodulin 2 in a 24-well plate at a density of 2×10^4 cells/mL. 10 μL of CCK-8 reaction solution is added to a 24-well plate according to CCK-8 instructions, and the optical density value (OD value) is measured at 4 h by a spectrophotometer with a wavelength of 450 nm. For EdU analysis, reagent A is added a medium in a 24-well plate and cultured at 37° C. for 4 h to label EdU, and then, cells are captured with a fluorescence microscope (EVOS FL) according to manufacturer's instructions. […]

In assay [2] the test system is HCAECs. As to the kind of experiment: Scratch migration of HCAECs on coated 316 L stainless steel. The assay is classed as cell-based, human. To be noted: PLGA slow-release coating, 48 h, scratch method; rapamycin 50 μg/mL; activators in combination with rapamycin. The method, then: as §1
After HCAECs are grown on the 316 L stainless steel plate for 48 h, the cell viability is tested by a CCK-8 method, the cell multiplication capacity is tested by an EdU method, and the cell migration capacity is tested by a scratch method. The HCAECs are co-cultured with neutrophils (10^6/well) or platelets (5×10^6/well) labeled with 2 μM of PKH-26 for 1 h. Calcein-AM staining is followed by fluorescence microscopy.

Assay [3] deals with HCAECs. Put plainly: Growth of HCAECs on coated 316 L stainless steel (stent simulation environment). The assay is classed as cell-based, human. Particulars: PLGA slow-release coating, 48 h; rapamycin 50 μg/mL; activators (APC 50 μg/mL, TR47 40 μM, Parmodulin 2 20 μM) in combination with rapamycin. The method, then:
as §1, §2, §3

For assay [4], the system named is HCAECs. As to the kind of experiment: EdU multiplication of HCAECs on coated 316 L stainless steel. The assay is classed as cell-based, human. To be noted: PLGA slow-release coating, 48 h, rapamycin 50 μg/mL, activators in combination with rapamycin. The method, then:
as §1, §2, §3

Another assay has as its system neutrophils on HCAECs. As to the kind of experiment: Adhesion of neutrophils to HCAECs on coated 316 L stainless steel. The assay is classed as cell-based, human. To be noted: PLGA slow-release coating on 316 L steel, co-culture 1 h; activators in combination with rapamycin. The method, then:
as §1, §2, §3

The next assay deals with platelets on HCAECs. As to the kind of experiment: Adhesion of platelets to HCAECs on coated 316 L stainless steel. Particulars: PLGA slow-release coating on 316 L steel, co-culture 1 h; activators in combination with rapamycin. The assay is classed as cell-based, human. The method, then:
as §1, §2, §3

For assay [5], the system named is endothelial protein C receptor (EPCR). As to the kind of experiment: Western blotting of EPCR expression and EPCR pathway in HCAECs treated with EPCR activators, alone or with rapamycin. The assay is classed as cell-based, human. Particulars: for activation of the EPCR pathway in HCAECs / protein expression of the EPCR in HCAECs: 10 μM APC, 40 μM TR47, 20 μM Parmodulin 2, 24 h; for effect on the rapamycin-induced inhibition of the EPCR in HCAECs: activator in combination with 100 nM rapamycin, 24 h. The method, then: Specifically, HCAECs are cultured in an EBM-2 (Lonza, CC3156) supplemented with a 3% fetal bovine serum (FBS) and endothelial growth factor supplement mixture (Lonza, CC4176) under standard cell culture conditions (37° C., 5% of CO2), and cells of generations of P3-5 are tested at 70%-80%. HCAECs are treated with 10 μM of APC, 40 μM of TR47 and 20 μM of Parmodulin 2, or each in combination with 100 nM of rapamycin for 24 h, and then, western blotting is performed for testing protein expression.

Assay [6] shares this test system. As to the kind of experiment: Western blotting of EPCR protein expression in HCAECs treated with limus drugs or paclitaxel. The assay is classed as cell-based, human. To be noted: 24 h. The method, then: (§4) Specifically, HCAECs are cultured in an endothelial cell basal medium (EBM)-2 (Lonza, CC3156) supplemented with a 3% fetal bovine serum (FBS) and endothelial growth factor supplement mixture (Lonza, CC4176) under standard cell culture conditions (37° C., 5% CO2), and P3-5 cells are tested at 70%-80%. Western blotting is performed to test protein expression after HCAECs are treated with rapamycin, zotarolimus, everolimus, and paclitaxel at the doses shown in FIG. 1, or 100 nM of tacrolimus, deforolimus, biolimus A9, and pimecrolimus for 24 h. Alternatively, C57BL6/J mice received rapamycin, zotarolimus, everolimus, and paclitaxel at 2 mg/kg of body weight daily via tail vein injection for 2 weeks, and immunofluorescence observation of tissues is performed.

For assay [7] the test system is unchanged. Put plainly: Immunofluorescence of EPCR in mouse cardiac vessels after tail vein injection. The assay is classed as in vivo. To be noted: C57BL6/J mice, 2 mg/kg daily via tail vein injection for 2 weeks. Here is the method:
as §4

Assay [8] relates to vascular smooth muscle cells (HCASMCs, HASMCs). As to the kind of experiment: EdU cell multiplication of vascular smooth muscle cells. The assay is classed as cell-based, human. Particulars: APC 10 μM. The method, then: (§5) Generations 3-5 of primary human coronary artery smooth muscle cells (HCASMCs) are cultured in a growth medium (Cell applications, cat #31-500). Human arterial smooth muscle cells (HASMCs) are cultured in a smooth muscle cell culture medium containing 2% of FBS and 1% of penicillin/streptomycin at 37° C. in a humidified atmosphere containing 5% of CO2. Ad-EC or Ad-EPCR infected the cells for 48 h. APC is 10 μM, and rapamycin is 100 nM. Fluorescence is observed by a microscope. Protein expression is tested by means of western blotting. The cell viability is tested by means of CCK-8, the cell multiplication capacity is observed by means of EdU, and the migration capacity is evaluated by means of Transwel chamber and scratch tests.

Assay [9] has the same test system. As to the kind of experiment: Transwel chamber and scratch migration tests of vascular smooth muscle cells. The assay is classed as cell-based, human. To be noted: APC 10 μM. Here is the method:
as §5

The test system is the same in assay [10]. Put plainly: CCK-8 cell viability of vascular smooth muscle cells. The assay is classed as cell-based, human. Particulars: APC 10 μM. Here is the method: as §5
[11] abbreviates: doses shown in FIG. 1, western blotting.

As to `CCCC(=O)Nc1cccc(NC(=O)c2ccccc2Br)c1` [Parmodulin 2], the “viability of HCAECs on 316 L stainless steel” value with HCAECs [1] is “restore”. Also, in the assay with HCAECs [2], the “migration of HCAECs on 316 L stainless steel” value is recorded as “restore”. Also, the “growth of HCAECs on 316 L stainless steel” value in the assay on HCAECs [3] was “restore”. In the assay on HCAECs [4], the “multiplication of HCAECs on 316 L stainless steel” value is “restore”. Besides, the “adhesion of neutrophils to surface of ECs” value with neutrophils on HCAECs was “inhibit adhesion”. Moreover, the “adhesion of platelets to surface of ECs” value in the assay on platelets on HCAECs is “inhibit adhesion”. In addition, in assay [5], the “activation of the EPCR pathway in HCAECs” value is listed as “protectively activate the EPCR pathway”, the “protein expression of the EPCR in HCAECs” value is “induce protein expression of the EPCR in the cells” and the “effect on the rapamycin-induced inhibition of the EPCR in HCAECs” value is “antagonize the inhibitory effect of limus drugs such as rapamycin on the EPCR”.
Regarding `CC(=O)O[C@H]1C(=O)[C@@]2(C)[C@H]([C@H](OC(=O)c3ccccc3)[C@]3(O)C[C@H](OC(=O)[C@H](O)[C@@H](NC(=O)c4ccccc4)c4ccccc4)C(C)=C1C3(C)C)[C@]1(OC(C)=O)CO[C@@H]1C[C@@H]2O` [paclitaxel], the “expression of EPCR in HCAECs” value in [6] (setting [11]) is “inhibit expression of an EPCR in HCAECs in a concentration-dependent manner”. The “expression of EPCR in mouse cardiac vessels” value in assay [7] was “inhibit expression of the EPCR in mouse cardiac vessels”.
Regarding `CCOCCO[C@@H]1CC[C@@H](C[C@@H](C)[C@@H]2CC(=O)[C@H](C)/C=C(\C)[C@@H](O)[C@@H](OC)C(=O)[C@H](C)C[C@H](C)/C=C/C=C/C=C(\C)[C@@H](OC)C[C@@H]3CC[C@@H](C)[C@@](O)(O3)C(=O)C(=O)N3CCCC[C@H]3C(=O)O2)C[C@H]1OC` [biolimus A9], the “expression of EPCR in HCAECs” value in [6] (100 nM, western blotting) is “inhibit expression of the EPCR in HCAECs”.
With `CO[C@H]1C[C@@H]2CC[C@@H](C)[C@@](O)(O2)C(=O)C(=O)N2CCCC[C@H]2C(=O)O[C@H]([C@H](C)C[C@@H]2CC[C@@H](OCCO)[C@H](OC)C2)CC(=O)[C@H](C)/C=C(\C)[C@@H](O)[C@@H](OC)C(=O)[C@H](C)C[C@H](C)/C=C/C=C/C=C/1C` [everolimus], the “expression of EPCR in HCAECs” value in assay [6] (setting [11]) is listed as “inhibit expression of an EPCR in HCAECs in a concentration-dependent manner”. In addition, the “expression of EPCR in mouse cardiac vessels” value in assay [7] is “inhibit expression of the EPCR in mouse cardiac vessels”.
As to `C=CC[C@@H]1/C=C(\C)C[C@H](C)C[C@H](OC)[C@H]2O[C@@](O)(C(=O)C(=O)N3CCCC[C@H]3C(=O)O[C@H](/C(C)=C/[C@@H]3CC[C@@H](O)[C@H](OC)C3)[C@H](C)[C@@H](O)CC1=O)[C@H](C)C[C@@H]2OC` [tacrolimus], in assay [6] (100 nM, western blotting), the “expression of EPCR in HCAECs” value is recorded as “inhibit expression of the EPCR in HCAECs”.
Turning to `CO[C@H]1C[C@@H]2CC[C@@H](C)[C@@](O)(O2)C(=O)C(=O)N2CCCC[C@H]2C(=O)O[C@H]([C@H](C)C[C@@H]2CC[C@H](n3cnnn3)[C@H](OC)C2)CC(=O)[C@H](C)/C=C(\C)[C@@H](O)[C@@H](OC)C(=O)[C@H](C)C[C@H](C)/C=C/C=C/C=C/1C` [zotarolimus], the “expression of EPCR in HCAECs” value in assay [6] (setting [11]) is reported as “inhibit expression of an EPCR in HCAECs in a concentration-dependent manner”. The “expression of EPCR in mouse cardiac vessels” value in [7] is given as “inhibit expression of the EPCR in mouse cardiac vessels”.
On to activated protein C [APC], for which the “viability of HCAECs on 316 L stainless steel” value in the assay with HCAECs [1] is “restore”. In addition, in assay [8], the “multiplication capacity of vascular smooth muscle cells” value is on record as “does not affect”. The “migration of HCAECs on 316 L stainless steel” value in the assay with HCAECs [2] was “restore”. In addition, the “growth of HCAECs on 316 L stainless steel” value in the assay with HCAECs [3] was “restore”. Further, in the assay with HCAECs [4], the “multiplication of HCAECs on 316 L stainless steel” value is reported as “restore”. Moreover, the “adhesion of neutrophils to surface of ECs” value with neutrophils on HCAECs was “inhibit adhesion”. For the same compound, the “adhesion of platelets to surface of ECs” value with platelets on HCAECs is reported as “inhibit adhesion”. In addition, in assay [5], the “activation of the EPCR pathway in HCAECs” value is on record as “protectively activate the EPCR pathway”, the “protein expression of the EPCR in HCAECs” value is given as “induce protein expression of the EPCR in the cells” and the “effect on the rapamycin-induced inhibition of the EPCR in HCAECs” value was “antagonize the inhibitory effect of limus drugs such as rapamycin on the EPCR”. Moreover, in assay [9], the “migration capacity of vascular smooth muscle cells” value was “does not affect”. Further, in assay [10], the “cell viability of vascular smooth muscle cells” value is recorded as “does not affect”.
`CC[C@@H]1/C=C(\C)C[C@H](C)C[C@H](OC)[C@H]2O[C@@](O)(C(=O)C(=O)N3CCCC[C@H]3C(=O)O[C@H](/C(C)=C/[C@@H]3CC[C@H](Cl)[C@H](OC)C3)[C@H](C)[C@@H](O)CC1=O)[C@H](C)C[C@@H]2OC` [pimecrolimus]: the “expression of EPCR in HCAECs” value in assay [6] (100 nM, western blotting) is “inhibit expression of the EPCR in HCAECs”.
For `CO[C@H]1C[C@@H]2CC[C@@H](C)[C@@](O)(O2)C(=O)C(=O)N2CCCC[C@H]2C(=O)O[C@H]([C@H](C)C[C@@H]2CC[C@@H](OP(C)(C)=O)[C@H](OC)C2)CC(=O)[C@H](C)/C=C(\C)[C@@H](O)[C@@H](OC)C(=O)[C@H](C)C[C@H](C)/C=C/C=C/C=C/1C` [deforolimus], the “expression of EPCR in HCAECs” value in assay [6] (100 nM, western blotting) is on record as “inhibit expression of the EPCR in HCAECs”.

Values taken from patent US20250268736A1, “VASCULAR STENT AND MANUFACTURING PROCESS THEREFOR” (THE SECOND AFFILIATED HOSPITAL OF GUANGZHOU MEDICAL …, priority 2024, published 2025).
